Biological target: recombinant human HPK1 (Homo sapiens (Human), UniProt Q92918)
Experiment: HPK1 kinase assay (ADP-Glo)
Type: biochemical
Conditions: 25 μM ATP, MBP substrate
Procedure, shortened: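 Activity was read as ADP formed, detected by ADP-Glo luminescence after the reaction of 5 ng recombinant human HPK1 with MBP and ATP (stocks 0.5 μg/μl and 25 μM) for 40 min at 30 °C. Buffer was Tris pH 7.5 with MgCl2, BSA and DTT, with compound in 0.5% DMSO. IC50 came from inhibition curves.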

recombinant human HPK1, sequence (Q92918 whole entry): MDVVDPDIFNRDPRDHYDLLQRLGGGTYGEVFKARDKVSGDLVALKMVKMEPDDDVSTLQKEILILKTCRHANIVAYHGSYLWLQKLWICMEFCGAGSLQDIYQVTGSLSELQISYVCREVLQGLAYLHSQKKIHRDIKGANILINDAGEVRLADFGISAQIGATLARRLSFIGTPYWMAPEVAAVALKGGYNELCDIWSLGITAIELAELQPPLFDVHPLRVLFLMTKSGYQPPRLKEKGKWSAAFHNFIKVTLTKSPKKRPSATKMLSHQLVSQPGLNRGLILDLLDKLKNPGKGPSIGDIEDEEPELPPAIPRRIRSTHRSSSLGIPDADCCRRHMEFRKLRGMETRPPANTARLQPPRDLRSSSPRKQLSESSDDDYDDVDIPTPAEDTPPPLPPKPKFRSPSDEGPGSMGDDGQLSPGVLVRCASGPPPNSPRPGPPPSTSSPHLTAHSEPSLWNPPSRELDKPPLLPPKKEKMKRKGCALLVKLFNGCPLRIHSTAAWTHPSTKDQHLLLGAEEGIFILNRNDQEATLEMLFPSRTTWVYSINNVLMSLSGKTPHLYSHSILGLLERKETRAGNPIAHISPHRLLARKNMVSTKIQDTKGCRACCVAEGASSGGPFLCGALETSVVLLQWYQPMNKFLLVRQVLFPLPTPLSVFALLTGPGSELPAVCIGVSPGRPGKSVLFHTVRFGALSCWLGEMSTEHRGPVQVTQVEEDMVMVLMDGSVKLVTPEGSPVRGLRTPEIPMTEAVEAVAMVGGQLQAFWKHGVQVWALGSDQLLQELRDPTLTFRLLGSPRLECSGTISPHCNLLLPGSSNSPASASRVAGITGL

IC50 [nM]	Structure (SMILES)
501 to 1000	N#Cc1ccc2[nH]ncc2c1-c1ccn2nc(NC(=O)[C@@H]3C[C@@H]3F)cc2c1 [Example 456, (1S,2S)-N-(5-(5-cyano-1H-indazol-4-yl)pyrazolo[1,5-a]pyridin-2-yl)-2-fluorocyclopropane-1-carboxamide]
< 100	O=C(Nc1cc2cc(-c3c(C4CC4)c(F)cc4[nH]ncc34)ccn2n1)[C@@H]1C[C@@H]1F [Example 457, (1S,2S)-N-(5-(5-cyclopropyl-6-fluoro-1H-indazol-4-yl)pyrazolo[1,5-a]pyridin-2-yl)-2-fluorocyclopropane-1-carboxamide]
< 100	O=C(Nc1cc2cc(-c3c(Cl)c(F)cc4[nH]ncc34)ccn2n1)[C@@H]1C[C@@H]1F [Example 458, (1S,2S)-N-(5-(5-chloro-6-fluoro-1H-indazol-4-yl)pyrazolo[1,5-a]pyridin-2-yl)-2-fluorocyclopropane-1-carboxamide]
101 to 500	O=C(Nc1cc2cc(-c3c(C4CC4)ccc4[nH]ncc34)ccn2n1)[C@@H]1C[C@@H]1F [Example 459, (1S,2S)-N-(5-(5-cyclopropyl-1H-indazol-4-yl)pyrazolo[1,5-a]pyridin-2-yl)-2-fluorocyclopropane-1-carboxamide]
< 100	Cc1c(F)cc2[nH]ncc2c1-c1ccn2nc(NC(=O)[C@@H]3C[C@@H]3F)cc2c1 [Example 460, (1S,2S)-2-fluoro-N-(5-(6-fluoro-5-methyl-1H-indazol-4-yl)pyrazolo[1,5-a]pyridin-2-yl)cyclopropane-1-carboxamide]
> 1000	O=C(Nc1cc2cc(-c3c(CO)ccc4[nH]ncc34)ccn2n1)[C@@H]1C[C@@H]1F [Example 461, (1S,2S)-2-fluoro-N-(5-(5-(hydroxymethyl)-1H-indazol-4-yl)pyrazolo[1,5-a]pyridin-2-yl)cyclopropane-1-carboxamide]
< 100	CC(C)c1c(F)cc2[nH]ncc2c1-c1ccn2nc(NC(=O)[C@@H]3C[C@@H]3F)cc2c1 [Example 462, (1S,2S)-2-fluoro-N-(5-(6-fluoro-5-isopropyl-1H-indazol-4-yl)pyrazolo[1,5-a]pyridin-2-yl)cyclopropane-1-carboxamide]
< 100	CSc1ccc2[nH]ncc2c1-c1ccn2nc(NC(=O)[C@@H]3C[C@@H]3F)cc2c1 [Example 463, (1S,2S)-2-fluoro-N-(5-(5-(methylthio)-1H-indazol-4-yl)pyrazolo[1,5-a]pyridin-2-yl)cyclopropane-1-carboxamide]
< 100	O=C(Nc1cc2cc(-c3c(Br)c(F)cc4[nH]ncc34)ccn2n1)[C@@H]1C[C@@H]1F [Example 464, (1S,2S)-N-(5-(5-bromo-6-fluoro-1H-indazol-4-yl)pyrazolo[1,5-a]pyridin-2-yl)-2-fluorocyclopropane-1-carboxamide]
< 100	O=C(Nc1cc2cc(-c3c(C(F)F)ccc4[nH]ncc34)ccn2n1)[C@@H]1C[C@@H]1F [Example 465, (1S,2S)-N-(5-(5-(difluoromethyl)-1H-indazol-4-yl)pyrazolo[1,5-a]pyridin-2-yl)-2-fluorocyclopropane-1-carboxamide]
< 100	CCc1c(F)cc2[nH]ncc2c1-c1ccn2nc(NC(=O)[C@@H]3C[C@@H]3F)cc2c1 [Example 466, (1S,2S)-N-(5-(5-ethyl-6-fluoro-1H-indazol-4-yl)pyrazolo[1,5-a]pyridin-2-yl)-2-fluorocyclopropane-1-carboxamide]
< 100	COc1c(F)cc2[nH]ncc2c1-c1ccn2nc(NC(=O)[C@@H]3C[C@@H]3F)cc2c1 [Example 467, (1S,2S)-2-fluoro-N-(5-(6-fluoro-5-methoxy-1H-indazol-4-yl)pyrazolo[1,5-a]pyridin-2-yl)cyclopropane-1-carboxamide]
< 100	O=C(Nc1cc2cc(-c3c(C(F)F)c(F)cc4[nH]ncc34)ccn2n1)[C@@H]1C[C@@H]1F [Example 468, (1S,2S)-N-(5-(5-(difluoromethyl)-6-fluoro-1H-indazol-4-yl)pyrazolo[1,5-a]pyridin-2-yl)-2-fluorocyclopropane-1-carboxamide]
< 100	Cc1c(F)cc2[nH]nc(Cl)c2c1-c1ccn2nc(NC(=O)[C@@H]3C[C@@H]3F)cc2c1 [Example 469, (1S,2S)-N-(5-(3-chloro-6-fluoro-5-methyl-1H-indazol-4-yl)pyrazolo[1,5-a]pyridin-2-yl)-2-fluorocyclopropane-1-carboxamide]
101 to 500	Cc1c(F)cc2[nH]nc(C)c2c1-c1ccn2nc(NC(=O)[C@@H]3C[C@@H]3F)cc2c1 [Example 470, (1S,2S)-2-fluoro-N-(5-(6-fluoro-3,5-dimethyl-1H-indazol-4-yl)pyrazolo[1,5-a]pyridin-2-yl)cyclopropane-1-carboxamide]
101 to 500	CSc1n[nH]c2cc(F)c(C)c(-c3ccn4nc(NC(=O)[C@@H]5C[C@@H]5F)cc4c3)c12 [Example 471, (1S,2S)-2-fluoro-N-(5-(6-fluoro-5-methyl-3-(methylthio)-1H-indazol-4-yl)pyrazolo[1,5-a]pyridin-2-yl)cyclopropane-1-carboxamide]
> 1000	C#Cc1n[nH]c2cc(F)c(C)c(-c3ccn4nc(NC(=O)[C@@H]5C[C@@H]5F)cc4c3)c12 [Example 472, (1S,2S)-N-(5-(3-ethynyl-6-fluoro-5-methyl-1H-indazol-4-yl)pyrazolo[1,5-a]pyridin-2-yl)-2-fluorocyclopropane-1-carboxamide]
> 1000	Cc1c(F)cc2[nH]nc(C3CC3)c2c1-c1ccn2nc(NC(=O)[C@@H]3C[C@@H]3F)cc2c1 [Example 473, (1S,2S)-N-(5-(3-cyclopropyl-6-fluoro-5-methyl-1H-indazol-4-yl)pyrazolo[1,5-a]pyridin-2-yl)-2-fluorocyclopropane-1-carboxamide]
101 to 500	C=Cc1n[nH]c2cc(F)c(C)c(-c3ccn4nc(NC(=O)[C@@H]5C[C@@H]5F)cc4c3)c12 [Example 474, (1S,2S)-2-fluoro-N-(5-(6-fluoro-5-methyl-3-vinyl-1H-indazol-4-yl)pyrazolo[1,5-a]pyridin-2-yl)cyclopropane-1-carboxamide]
> 1000	CCc1n[nH]c2cc(F)c(C)c(-c3ccn4nc(NC(=O)[C@@H]5C[C@@H]5F)cc4c3)c12 [Example 475, (1S,2S)-N-(5-(3-ethyl-6-fluoro-5-methyl-1H-indazol-4-yl)pyrazolo[1,5-a]pyridin-2-yl)-2-fluorocyclopropane-1-carboxamide]
< 100	O=C(Nc1cc2cc(-c3c(Cl)c(F)c(Cl)c4[nH]ncc34)ccn2n1)[C@@H]1C[C@@H]1F [Example 476, (1S,2S)-N-(5-(5,7-dichloro-6-fluoro-1H-indazol-4-yl)pyrazolo[1,5-a]pyridin-2-yl)-2-fluorocyclopropane-1-carboxamide]
< 100	Cc1c(F)c(C)c2[nH]ncc2c1-c1ccn2nc(NC(=O)[C@@H]3C[C@@H]3F)cc2c1 [Example 477, (1S,2S)-2-fluoro-N-(5-(6-fluoro-5,7-dimethyl-1H-indazol-4-yl)pyrazolo[1,5-a]pyridin-2-yl)cyclopropane-1-carboxamide]
501 to 1000	CP(C)(=O)c1c(F)c(Cl)c(-c2ccn3nc(NC(=O)[C@@H]4C[C@@H]4F)cc3c2)c2cn[nH]c12 [Example 478, (1S,2S)-N-(5-(5-chloro-7-(dimethylphosphoryl)-6-fluoro-1H-indazol-4-yl)pyrazolo[1,5-a]pyridin-2-yl)-2-fluorocyclopropane-1-carboxamide]

Source: patent US11649255B2, “Indazoles as hematopoietic progenitor kinase 1 (HPK1) inhibitors and methods using same” (1st Biotherapeutics, Inc., priority 2020, dated 2023)
